According to patent publication US6737383B1, “Herbicidal oxadiazolidines” (priority 1999, dated 2004):

Legend:
[1] = test system: morningglory; test: Test B pre/postemergence morningglory; type: in vivo, Ipomoea hederacea
Method in brief: (§1)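 Test chemicals in a non-phytotoxic solvent mixture with surfactant were sprayed preemergence onto planted seeds and postemergence onto plants 2 to 18 cm tall (1- to 4-leaf stage). After twelve to sixteen days in a greenhouse, injury was visually rated against untreated controls from 0 (no effect) to 10 (complete control).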

[2] = test system: duck salad; test: Test B flood test duck salad; type: in vivo, Heteranthera limosa
Method in brief: (§2)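 Each value is a visual injury score relative to controls, with 10 meaning complete control and 0 no effect. Evaluation took place twelve to sixteen days after the 2-leaf-stage plants were treated and kept in the greenhouse.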

[3] = test system: crabgrass; test: Test B pre/postemergence crabgrass; type: in vivo, Digitaria sanguinalis
Method in brief: as §1

[4] = test system: purple nutsedge; test: Test B pre/postemergence purple nutsedge; type: in vivo, Cyperus rotundus; details: Postemergence
Method in brief: as §1

[5] = test system: rape; test: Test B pre/postemergence rape; type: in vivo, Brassica napus
Method in brief: as §1

[6] = test system: cocklebur; test: Test B pre/postemergence cocklebur; type: in vivo, Xanthium strumarium
Method in brief: as §1

[7] = test system: surinam grass; test: Test B pre/postemergence surinam grass; type: in vivo, Brachiaria decumbens
Method in brief: as §1

[8] = test system: rice; test: Test B flood test rice; type: in vivo, Oryza sativa
Method in brief: as §2

[9] = test system: smallflower flatsedge; test: Test B flood test smallflower flatsedge; type: in vivo, Cyperus difformis
Method in brief: as §2

[10] = test system: blackgrass; test: Test B pre/postemergence blackgrass; type: in vivo, Alopecurus myosuroides
Method in brief: as §1

[11] = test system: bedstraw; test: Test B pre/postemergence bedstraw; type: in vivo, Galium aparine
Method in brief: as §1

[12] = test system: pigweed; test: Test B pre/postemergence pigweed; type: in vivo, Amaranthus retroflexus
Method in brief: as §1

[13] = test system: corn; test: Test B pre/postemergence corn; type: in vivo, Zea mays
Method in brief: as §1

[14] = test system: wild oat; test: Test B pre/postemergence wild oat; type: in vivo, Avena fatua
Method in brief: as §1

[15] = test system: bamyardgrass; test: Test B flood test barnyardgrass; type: in vivo, Echinochloa crus-galli
Method in brief: as §2

[16] = test system: wheat; test: Test B pre/postemergence wheat; type: in vivo, Triticum aestivum
Method in brief: as §1

[17] = test system: sugar beet; test: Test B pre/postemergence sugar beet; type: in vivo, Beta vulgaris
Method in brief: as §1

[18] = test system: soybean; test: Test B pre/postemergence soybean; type: in vivo, Glycine max
Method in brief: as §1

[19] = test system: giant foxtail; test: Test B pre/postemergence giant foxtail; type: in vivo, Setaria faberii
Method in brief: as §1

[20] = test system: velvetleaf; test: Test B pre/postemergence velvetleaf; type: in vivo, Abutilon theophrasti
Method in brief: as §1

[21] = Preemergence, Rate 62 g/ha, scale of 0 to 10 where 0 is no effect and 10 is complete control
[22] = Preemergence, Rate 250 g/ha, scale of 0 to 10 where 0 is no effect and 10 is complete control
[23] = Preemergence, Rate 500 g/ha, scale of 0 to 10 where 0 is no effect and 10 is complete control
[24] = Rate 125 g/ha, Preemergence, scale of 0 to 10 where 0 is no effect and 10 is complete control
[25] = Rate 500 g/ha, Postemergence, scale 0 to 10, 0 no effect, 10 complete control
[26] = Rate 62 g/ha, headed Pre-emergence (flood test species), scale 0 to 10 (0 no effect, 10 complete control)
[27] = Rate 125 g/ha, Pre-emergence, flood test species, scale 0 to 10 where 0 is no effect and 10 is complete control
[28] = Rate 250 g/ha, Pre-emergence, flood-test species, scale 0 to 10, 0 is no effect, 10 is complete control
[29] = Rate 500 g/ha, Pre-emergence, flood test species, scale 0 to 10 (0 no effect, 10 complete control)
[30] = Rate 62 g/ha, Postemergence, scale of 0 to 10 where 0 is no effect and 10 is complete control
[31] = Rate 125 g/ha, Postemergence, scale 0 to 10

CC(C)N(C(=O)n1oc(=O)n(CCC2OCCCO2)c1=O)c1ccc(F)cc1 [Compound 255]
10: Blackgrass plant response rating [10, 21] | Blackgrass plant response rating [10, 22] | Plant response rating, Blackgrass [10, 23] | Blackgrass plant response rating [10, 24] | Plant response rating, Redroot pigweed [12, 23] | Plant response rating, Wild oats [14, 23] | Giant foxtail plant response rating [19, 22] | Plant response rating, Giant foxtail [19, 23]
6: Nutsedge plant response rating ([4]; Rate 500 g/ha, scale 0 to 10, 0 no effect, 10 complete control) | Corn plant response rating [13, 25] | Sugarbeets plant response rating [17, 22] | Soybean plant response rating [18, 25] | Plant response rating (0 to 10; 0 is no effect, 10 is complete control), Giant foxtail ([19]; Rate 250 g/ha, Postemergence)
2: Plant response rating (0 to 10; 0 is no effect, 10 is complete control), Crabgrass ([3]; Rate 250 g/ha, Postemergence) | Cocklebur plant response rating [6, 25] | B. signalgrass plant response rating [7, 24] | Plant response rating (0 to 10; 0 is no effect, 10 is complete control), B. signalgrass ([7]; Rate 250 g/ha, Postemergence) | Blackgrass plant response rating [10, 31] | Plant response rating (0 to 10; 0 is no effect, 10 is complete control), Bedstraw ([11]; Rate 250 g/ha, Postemergence) | Redroot pigweed plant response rating [12, 24] | Plant response rating (0 to 10; 0 is no effect, 10 is complete control), Redroot pigweed ([12]; Rate 250 g/ha, Postemergence) | Wild oats plant response rating [14, 24]
4: Wild oats plant response rating [14, 25] | Wheat plant response rating [16, 22]
9: Plant response rating, Crabgrass [3, 23] | Plant response rating, B. signalgrass [7, 23] | Blackgrass plant response rating [10, 25] | Giant foxtail plant response rating [19, 24]
7: Crabgrass plant response rating [3, 22] | Plant response rating (0 to 10; 0 is no effect, 10 is complete control), Blackgrass ([10]; Rate 250 g/ha, Postemergence) | Plant response rating, Sugarbeets [17, 23] | Plant response rating, Velvetleaf [20, 23]
5: Plant response rating, Rape [5, 23] | Redroot pigweed plant response rating [12, 22] | Wild oats plant response rating [14, 22] | Velvetleaf plant response rating [20, 22]
8: Plant response rating (0 to 10; 0 is no effect, 10 is complete control), Morningglory ([1]; Rate 250 g/ha, Postemergence) | Morningglory plant response rating [1, 25] | B. signalgrass plant response rating [7, 25] | Bedstraw plant response rating [11, 25] | Redroot pigweed plant response rating [12, 25] | Plant response rating, Corn [13, 23] | Plant response rating, Wheat [16, 23] | Wheat plant response rating [16, 25] | Giant foxtail plant response rating [19, 21] | Giant foxtail plant response rating [19, 25]
1: Velvetleaf plant response rating [20, 25]
3: Crabgrass plant response rating [3, 24] | Crabgrass plant response rating [3, 25] | Plant response rating (0 to 10; 0 is no effect, 10 is complete control), Rape ([5]; Rate 250 g/ha, Postemergence) | Rape plant response rating [5, 25] | B. signalgrass plant response rating [7, 22] | Sugarbeets plant response rating [17, 24] | Sugarbeets plant response rating [17, 25]
0: Morningglory plant response rating [1, 21] | Morningglory plant response rating [1, 22] | Plant response rating, Morningglory [1, 23] | Morningglory plant response rating [1, 24] | Ducksalad plant response rating [2, 26] | Ducksalad plant response rating [2, 27] | Ducksalad plant response rating [2, 28] | Ducksalad plant response rating [2, 29] | Crabgrass plant response rating [3, 21] | Plant response rating (0 to 10; 0 is no effect, 10 is complete control), Nutsedge ([4]; Rate 250 g/ha) | Rape plant response rating [5, 21] | Rape plant response rating [5, 22] | Rape plant response rating [5, 24] | Cocklebur plant response rating [6, 21] | Cocklebur plant response rating [6, 22] | Plant response rating, Cocklebur [6, 23] | Cocklebur plant response rating [6, 30] | Cocklebur plant response rating [6, 31] | Cocklebur plant response rating [6, 24] | Plant response rating (0 to 10; 0 is no effect, 10 is complete control), Cocklebur ([6]; Rate 250 g/ha, Postemergence) | B. signalgrass plant response rating [7, 21] | B. signalgrass plant response rating [7, 30] | B. signalgrass plant response rating ([7]; Rate 125 g/ha, Postemergence, scale 0 (no effect) to 10 (complete control)) | Rice plant response rating [8, 26] | Rice plant response rating [8, 27] | Rice plant response rating [8, 28] | Rice plant response rating [8, 29] | S. Flatsedge plant response rating [9, 26] | S. Flatsedge plant response rating [9, 27] | S. Flatsedge plant response rating [9, 28] | S. Flatsedge plant response rating [9, 29] | Blackgrass plant response rating [10, 30] | Bedstraw plant response rating [11, 21] | Bedstraw plant response rating [11, 22] | Plant response rating, Bedstraw [11, 23] | Bedstraw plant response rating [11, 30] | Bedstraw plant response rating [11, 31] | Bedstraw plant response rating [11, 24] | Redroot pigweed plant response rating [12, 21] | Corn plant response rating [13, 21] | Corn plant response rating [13, 22] | Corn plant response rating [13, 30] | Corn plant response rating [13, 31] | Corn plant response rating [13, 24] | Plant response rating (0 to 10; 0 is no effect, 10 is complete control), Corn ([13]; Rate 250 g/ha, Postemergence) | Wild oats plant response rating [14, 21] | Barnyardgrass plant response rating [15, 26] | Barnyardgrass plant response rating [15, 27] | Barnyardgrass plant response rating [15, 28] | Barnyardgrass plant response rating [15, 29] | Wheat plant response rating [16, 21] | Wheat plant response rating [16, 24] | Sugarbeets plant response rating [17, 21] | Soybean plant response rating [18, 21] | Soybean plant response rating [18, 22] | Plant response rating, Soybean [18, 23] | Soybean plant response rating [18, 24] | Velvetleaf plant response rating [20, 21] | Velvetleaf plant response rating [20, 24]
